In assay [1] the test system is IL-1β production in bone marrow derived macrophages. Nature of the assay: IL-1β secretion by LPS/ATP-stimulated bone marrow derived macrophages. It is filed as cell-based, mouse. Conditions: LPS and ATP. How it is done: (§1) FIGS. 6A-6B illustrate the finding that bone marrow macrophages and liver Kupffer cells increase IL-1β in response to adenosine signaling. FIG. 6A: Murine bone marrow derived macrophages (BMDM) were primed with LPS for 16 hours, treated with NECA (10 μM) for 1 hour, and then pulsed with ATP. FIG. 6b: Primary murine liver Kupffer cells were primed with LPS for 16 hours, treated with NECA (10 μM) for 1 hour, and then pulsed with ATP. IL-1β secretion was measured in supernatants 5 hours after pulsing with ATP. Data are expressed as the mean±SD from at least three independent experiments. *p<0.05 determined by Student's t-test.
(§2) C57BL/6 mice were purchased from the National Cancer Institute. ASC−/−, Caspase-1−/−, Nlrp3−/− and P2xr7−/− mice have been described (Rock et al., 2010, Annu Rev Immunol. 28:321-42). A2ora2a flox/flox mice and LysMcre mice were purchased from Jackson Laboratories. HIF-1a flox/flox mice were kindly provided by Dr. Ruslan M Medzhitov (Yale University). 7- to 12-week-old males with a variety of genetic manipulations were used in most experiments. […]
(§3) Primed PECs were both pulsed for 20 min with 5 mM ATP or 10 μM nigericin, and left untreated until culture supernatants were collected. Secretion of IL-1β was determined by enzyme-linked immunoabsorbent assay (ELISA; R&D Systems).

Assay [2] relates to IL-1β production in liver Kupffer cells. As to the kind of experiment: IL-1β secretion by LPS/ATP-stimulated Kupffer cells. As to conditions: LPS and ATP. It counts as cell-based, mouse. How it is done:
as §1, §2, §3

Assay [3] concerns HRE promoter luciferase construct in THP-1 cells. Nature of the assay: HRE-promoter luciferase reporter assay in THP-1 cells. It counts as cell-based, human. As to conditions: LPS/PMA primed 16 hours, treatment over 8 hours. The source says:
FIGS. 4A-4H illustrate the finding that adenosine mediates increase in pro-IL-1β via a HIF-1α-dependent pathway. FIG. 4A: Consensus NFκB and HRE binding sites in the IL-1β promoter. FIG. 4B: LPS primed PECs obtained from A2AR-cKO and controls were stimulated with or without NECA or CGS21680. FIG. 4C: LPS primed PECs obtained from HIF-1α-cKO and controls were stimulated with or without NECA at time points as indicated. Cells were harvested and RNA isolated after each treatment and gene expression of Il1b and Hif1α quantified by real-time PCR. FIG. 4D: THP-1 cells were transfected with HRE-promoter luciferase construct and β-galactosidase plasmid in the presence or absence of CREB dominant negative plasmid (CREBΔ), and then primed with LPS/PMA followed by NECA. […] Luciferase activities were measured and normalized to β-galactosidase activity and normalized with controls. […] Luciferase activities were measured and normalized to Rluc activity and the normalized value with controls as indicated. […] IL-1β was measured in cell supernatant by ELISA. Data are expressed as the mean±SD from three independent experiments. […] HIF-1α, pro-caspase-1, Caspase-1 and pro-IL-1β was measured in cell supernatant by western blot Immunoblots shown are representative results from at least three independent experiments. […]
(Reporter assays use an easily measured gene product as a stand-in for the process of interest.)

This note sets out measurements from patent US10624917B2, “Compositions and methods useful for treating or preventing liver diseases or disorders, and promoting weight loss” (YALE UNIVERSITY, priority 2014, dated 2020).

With `CCNC(=O)[C@H]1O[C@@H](n2cnc3c(N)ncnc32)[C@H](O)[C@@H]1O` [NECA, 5′-(N-ethylcarboxamido) adenosine], the IL-1β production entry in assay [1] and in assay [2] was “significantly increased” throughout. Further, in assay [3], the “HRE reporter luciferase activity” value is “resulted in HRE reporter luciferase activity”.
